In patent US20230022157A1 (Achillion Pharmaceuticals, Inc., priority 2018, published 2023):

biological target: T1, Human Factor D (Homo sapiens, UniProt P00746); assay: Human Factor D Assay; type: biochemical; conditions: Human Factor D 80 nM, substrate Z-L-Lys-SBzl, assay of Example 3; read-out: IC50 (Stars)
T1 construct: purified from human serum; purchased Complement Technology, Inc; host or cells: human serum (natural protein, not recombinant)
In short: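 Serum-purified human factor D (80 nM final) preincubated 5 min at room temperature with test compound in 50 mM Tris, 1M NaCl, pH 7.5. Z-L-Lys-SBzl substrate and DTNB then added, each at 100 μM final. IC50 from nonlinear regression of reaction rate against compound concentration.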

T1 sequence (P00746 26-253): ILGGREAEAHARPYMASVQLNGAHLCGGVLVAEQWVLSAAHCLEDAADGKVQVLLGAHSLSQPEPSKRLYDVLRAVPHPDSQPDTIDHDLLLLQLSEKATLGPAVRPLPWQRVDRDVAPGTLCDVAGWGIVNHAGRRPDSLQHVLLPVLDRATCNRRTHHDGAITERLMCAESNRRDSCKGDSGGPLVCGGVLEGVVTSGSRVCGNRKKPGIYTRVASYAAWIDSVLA

IC50, < 1 µM:
CCC[C@@H](C)NC(=O)[C@@H]1C[C@@]2(C)C[C@H]2N1C(=O)Cn1nc(C(C)=O)c2cc(-c3cnc(C)nc3)ccc21 [Compound 16, (1R,3S,5R)-2-(2-(3-Acetyl-5-(2-methylpyrimidin-5-yl)-1H-indazol-1-yl)acetyl)-5-methyl-N—((R)-pentan-2-yl)-2-azabicyclo[3.1.0]hexane-3-carboxamide]
CC(=O)c1nn(CC(=O)N2C[C@H](F)C[C@H]2C(=O)Nc2cccc(Br)n2)c2ccc(-c3ccc(C)nn3)cc12 [Compound 35, (2S,4R)-1-(2-(3-Acetyl-5-(6-methylpyridazin-3-yl)-1H-indazol-1-yl)acetyl)-N-(6-bromopyridin-2-yl)-4-fluoropyrrolidine-2-carboxamide]
CC(=O)c1nn(CC(=O)N2[C@H](C(=O)Nc3nc(Br)ccc3C)C[C@@]3(C)C[C@@H]23)c2c(C)cc(-c3cnc(C(=O)O)nc3)cc12 [Compound 39, 5-(3-acetyl-1-(2-((1R,3S,5R)-3-((6-bromo-3-methylpyridin-2-yl)carbamoyl)-5-methyl-2-azabicyclo[3.1.0]hexan-2-yl)-2-oxoethyl)-7-methyl-1H-indazol-5-yl)pyrimidine-2-carboxylic acid]
CCCCC[C@@H](C)NC(=O)[C@@H]1C[C@@]2(C)C[C@H]2N1C(=O)Cn1nc(C(C)=O)c2cc(-c3cnc(C)nc3)ccc21 [Compound 17, (1R,3S,5R)-2-(2-(3-Acetyl-5-(2-methylpyrimidin-5-yl)-1H-indazol-1-yl)acetyl)-N—((R)-heptan-2-yl)-5-methyl-2-azabicyclo[3.1.0]hexane-3-carboxamide]

same assay, conditions: Human Factor D 80 nM, substrate Z-L-Lys-SBzl; Table 2; read-out: IC50 (Stars)

IC50, < 1 µM:
CC(=O)c1cn(CC(=O)N2[C@H](C(=O)Nc3nc(C(F)(F)F)ccc3C)C[C@@]3(C)C[C@@H]23)c2c(C)cc(-c3cnc(CO)nc3)cc12 [Compound 161, (1R,3S,5R)-2-(2-(3-acetyl-5-(2-(hydroxymethyl)pyrimidin-5-yl)-7-methyl-1H-indol-1-yl)acetyl)-5-methyl-N-(3-methyl-6-(trifluoromethyl)pyridin-2-yl)-2-azabicyclo[3.1.0]hexane-3-carboxamide]
CC(=O)c1cn(CC(=O)N2[C@H](C(=O)Nc3nc(C(F)(F)F)ccc3C)C[C@@]3(C)C[C@@H]23)c2c(C)cc(-c3cnc4cc(C)nn4c3)cc12 [Compound 199, (1R,3S,5R)-2-(2-(3-acetyl-7-methyl-5-(2-methylpyrazolo[1,5-a]pyrimidin-6-yl)-1H-indol-1-yl)acetyl)-5-methyl-N-(3-methyl-6-(trifluoromethyl)pyridin-2-yl)-2-azabicyclo[3.1.0]hexane-3-carboxamide]
CC(=O)c1nn(CC(=O)N2[C@H](C(=O)NC(C)Cc3ccsc3)C[C@@]3(C)C[C@@H]23)c2c(C)cc(-c3cnc(C)nc3)cc12 (stereo partly drawn) [Compound 183, (1R,3S,5R)-2-{2-[3-acetyl-7-methyl-5-(2-methylpyrimidin-5-yl)indazol-1-yl]acetyl}-5-methyl-N-[1-(thiophen-3-yl)propan-2-yl]-2-azabicyclo[3.1.0]hexane-3-carboxamide]
CC(=O)c1nn(CC(=O)N2[C@H](C(=O)Nc3nc(C(F)(F)F)ccc3C)C[C@@]3(C)C[C@@H]23)c2c(C)cc(-c3cnc(C(=O)O)nc3)cc12 [Compound 51, 5-(3-acetyl-7-methyl-1-(2-((1R,3S,5R)-5-methyl-3-((3-methyl-6-(trifluoromethyl)pyridin-2-yl)carbamoyl)-2-azabicyclo[3.1.0]hexan-2-yl)-2-oxoethyl)-1H-indazol-5-yl)pyrimidine-2-carboxylic acid]
CC(=O)c1cn(CC(=O)N2[C@H](C(=O)Nc3cc(C)cc(Br)n3)C[C@@]3(C)C[C@@H]23)c2c(C)cc(-c3cnc(C)nc3)cc12 [Compound 193, (1R,3S,5R)-2-(2-(3-acetyl-7-methyl-5-(2-methylpyrimidin-5-yl)-1H-indol-1-yl)acetyl)-N-(6-bromo-4-methylpyridin-2-yl)-5-methyl-2-azabicyclo[3.1.0]hexane-3-carboxamide]
CC(=O)c1nn(CC(=O)N2[C@H]3CC[C@H](C3)[C@H]2C(=O)Nc2nc(Br)c(F)cc2C)c2c(C)cc(-c3cnc(C)nc3)cc12 [Compound 101, (1S,3S,4R)-2-(2-(3-Acetyl-7-methyl-5-(2-methylpyrimidin-5-yl)-1H-indazol-1-yl)acetyl)-N-(6-bromo-5-fluoro-3-methylpyridin-2-yl)-2-azabicyclo[2.2.1]heptane-3-carboxamide]
CC(=O)c1nn(CC(=O)N2C[C@H]3C[C@H]3[C@H]2C(=O)Nc2nc(Br)ccc2Cl)c2c(C)cc(-c3cnc(C(C)O)nc3)cc12 (stereo partly shown) [Compound 166]
COc1cc(Br)nc(NC(=O)[C@@H]2C[C@@]3(C)C[C@H]3N2C(=O)Cn2nc(C(C)=O)c3cc(-c4cnc(CO)nc4)cc(C)c32)c1 [Compound 65, (1R,3S,5R)-2-(2-(3-acetyl-5-(2-(hydroxymethyl)pyrimidin-5-yl)-7-methyl-11H-indazol-1-yl)acetyl)-N-(6-bromo-4-methoxypyridin-2-yl)-5-methyl-2-azabicyclo[3.1.0]hexane-3-carboxamide]
CC(=O)c1nn(CC(=O)N2[C@H](C(=O)NC(C)Cc3ccc(O)cc3)C[C@@]3(C)C[C@@H]23)c2c(C)cc(-c3cnc(C)nc3)cc12 (stereo partly drawn) [Compound 147, (1R,3S,5R)-2-{2-[3-acetyl-7-methyl-5-(2-methylpyrimidin-5-yl)indazol-1-yl]acetyl}-N-[1-(4-hydroxyphenyl)propan-2-yl]-5-methyl-2-azabicyclo[3.1.0]hexane-3-carboxamide]
CC(=O)c1nn(CC(=O)N2[C@H](C(=O)Nc3nc(Br)ccc3C)C[C@@]3(C)C[C@@H]23)c2c(C)cc(-c3cnc(C(C)O)cn3)cc12 (stereo partly drawn) [Compound 176, (1R,3S,5R)-2-(2-(3-acetyl-5-(5-(1-hydroxyethyl)pyrazin-2-yl)-7-methyl-1H-indazol-1-yl)acetyl)-N-(6-bromo-3-methylpyridin-2-yl)-5-methyl-2-azabicyclo[3.1.0]hexane-3-carboxamide]
CC(=O)c1nn(CC(=O)N2[C@H](C(=O)Nc3nc(Br)ccc3Cl)C[C@@]3(C)C[C@@H]23)c2c(C)cc(-c3cnc(CO)nc3)cc12 [Compound 80, (1R,3S,5R)-2-(2-(3-acetyl-5-(2-(hydroxymethyl)pyrimidin-5-yl)-7-methyl-1H-indazol-1-yl)acetyl)-N-(6-bromo-3-chloropyridin-2-yl)-5-methyl-2-azabicyclo[3.1.0]hexane-3-carboxamide]
Cc1ncc(-c2cc3c(C(N)=O)nn(CC(=O)N4[C@H](C(=O)Nc5cc(F)cc(Br)n5)C[C@@]5(C)C[C@@H]45)c3c(C)n2)cn1 [Compound 140, 1-(2-((1R,3S,5R)-3-((6-bromo-4-fluoropyridin-2-yl)carbamoyl)-5-methyl-2-azabicyclo[3.1.0]hexan-2-yl)-2-oxoethyl)-7-methyl-5-(2-methylpyrimidin-5-yl)-1H-pyrazolo[3,4-c]pyridine-3-carboxamide]
CC(=O)c1nn(CC(=O)N2[C@H](C(=O)Nc3nc(Br)c(F)cc3C)C[C@@]3(C)C[C@@H]23)c2c(C)cc(-c3ccc(CO)nc3)cc12 [Compound 118, (1R,3S,5R)-2-(2-(3-acetyl-5-(6-(hydroxymethyl)pyridin-3-yl)-7-methyl-1H-indazol-1-yl)acetyl)-N-(6-bromo-5-fluoro-3-methylpyridin-2-yl)-5-methyl-2-azabicyclo[3.1.0]hexane-3-carboxamide]
CC(=O)c1cn(CC(=O)N2[C@H](C(=O)Nc3nc(Br)c(F)cc3C)C[C@@]3(C)C[C@@H]23)c2c(C)cc(-c3cnc(C)nc3)cc12 [Compound 144, (1R,3S,5R)-2-(2-(3-acetyl-7-methyl-5-(2-methylpyrimidin-5-yl)-1H-indol-1-yl)acetyl)-N-(6-bromo-5-fluoro-3-methylpyridin-2-yl)-5-methyl-2-azabicyclo[3.1.0]hexane-3-carboxamide]
Cc1ncc(-c2cc3c(C(N)=O)nn(CC(=O)N4[C@H](C(=O)Nc5nc(Br)ccc5C5CC5)C[C@@]5(C)C[C@@H]45)c3c(C)n2)cn1 [Compound 112, 1-{2-[3-(6-Bromo-3-cyclopropyl-pyridin-2-ylcarbamoyl)-5-methyl-2-aza-bicyclo[3.1.0]hex-2-yl]-2-oxo-ethyl}-7-methyl-5-(2-methyl-pyrimidin-5-yl)-1H-pyrazolo[3,4-c]pyridine-3-carboxylic acid amide]
CC(=O)c1nn(CC(=O)N2[C@H](C(=O)Nc3nc(Br)ccc3C)C[C@@]3(C)C[C@@H]23)c2c(C)cc(-c3ccnc(CO)c3)cc12 [Compound 132, (1R,3S,5R)-2-(2-(3-acetyl-5-(2-(hydroxymethyl)pyridin-4-yl)-7-methyl-1H-indazol-1-yl)acetyl)-N-(6-bromo-3-methylpyridin-2-yl)-5-methyl-2-azabicyclo[3.1.0]hexane-3-carboxamide]
CC(=O)c1cn(CC(=O)N2[C@H](C(=O)Nc3nc(C(F)(F)F)ccc3C)C[C@@]3(C)C[C@@H]23)c2c(C)cc(-c3cnc4cc(C5CC5)nn4c3)cc12 [Compound 196, (1R,3S,5R)-2-(2-(3-acetyl-5-(2-cyclopropylpyrazolo[1,5-a]pyrimidin-6-yl)-7-methyl-1H-indol-1-yl)acetyl)-5-methyl-N-(3-methyl-6-(trifluoromethyl)pyridin-2-yl)-2-azabicyclo[3.1.0]hexane-3-carboxamide]
CC(=O)c1nn(CC(=O)N2[C@H](C(=O)N[C@H](CO)Cc3ccccc3)C[C@@]3(C)C[C@@H]23)c2c(C)cc(-c3cnc(C)nc3)cc12 [Compound 146, (1R,3S,5R)-2-{2-[3-acetyl-7-methyl-5-(2-methylpyrimidin-5-yl)indazol-1-yl]acetyl}-N-[(2S)-1-hydroxy-3-phenylpropan-2-yl]-5-methyl-2-azabicyclo[3.1.0]hexane-3-carboxamide]
